Entries after “also recorded” stand apart in the source; their conditions may differ. Positions of bridges follow the written chain, without caps; N, C: chain ends. Non-standard residues stand in square brackets, D forms with d. Residues, ends and D or L forms follow the SMILES beside them. *: point of attachment. FITC = O=C1OC2(c3ccc(O)cc3Oc3cc(O)ccc32)c2ccc(NC(=S)*)cc21; S5 = C=CCCC[C@](C)(N)C(=O)O; βAla = NCCC(=O)O
Columns and labels:
[1] = biological target: T1, N-terminally GST-tagged human β-catenin (Homo sapiens, UniProt P35222); experiment: Fluorescence polarization assay with FITC-labeled peptides and GST-tagged β-catenin; type: binding; details: for increase in binding affinity to β-catenin compared to the wild type sequence (ax-WT): versus Axin wild type peptide
T1 sequence (P35222 1-781): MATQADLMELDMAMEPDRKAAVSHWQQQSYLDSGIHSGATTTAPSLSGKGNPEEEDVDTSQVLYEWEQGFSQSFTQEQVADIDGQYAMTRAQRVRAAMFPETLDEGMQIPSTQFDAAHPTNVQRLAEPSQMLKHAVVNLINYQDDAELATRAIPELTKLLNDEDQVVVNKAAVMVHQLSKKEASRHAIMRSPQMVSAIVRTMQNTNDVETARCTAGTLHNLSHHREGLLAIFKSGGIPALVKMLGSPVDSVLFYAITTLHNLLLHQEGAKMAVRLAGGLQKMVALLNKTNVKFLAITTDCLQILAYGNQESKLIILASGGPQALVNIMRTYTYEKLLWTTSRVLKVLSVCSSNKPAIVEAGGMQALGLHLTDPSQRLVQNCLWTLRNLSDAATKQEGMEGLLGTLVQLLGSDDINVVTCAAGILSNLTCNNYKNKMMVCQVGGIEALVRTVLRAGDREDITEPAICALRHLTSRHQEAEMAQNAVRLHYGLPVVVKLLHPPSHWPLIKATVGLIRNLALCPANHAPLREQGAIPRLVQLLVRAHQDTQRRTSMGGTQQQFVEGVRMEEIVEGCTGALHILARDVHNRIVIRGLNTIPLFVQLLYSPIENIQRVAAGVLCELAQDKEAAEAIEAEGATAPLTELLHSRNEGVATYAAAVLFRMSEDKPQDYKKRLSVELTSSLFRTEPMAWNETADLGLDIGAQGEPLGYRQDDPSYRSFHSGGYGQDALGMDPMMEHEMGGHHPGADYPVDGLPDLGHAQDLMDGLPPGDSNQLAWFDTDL
From the text: FIG. 4 depicts (a) superimposed crystal structures of TCF4 (PDB ID: 2GL7)[14] and Axin (PDB ID: 1QZ7)[15] bound to β-catenin; (b) sequences of modified peptides with NCBI accession and covered amino acids (* amino acids 29-37 were replaced by two βAla); (c) fluorescence polarization assays using FITC-labeled peptides and N-terminally GST-tagged human β-catenin (with corresponding Kds).
FIG. 7 depicts (a) fluorescently labeled peptide sequences resulting from phage display affinity optimization (entries 1, 4 and 17/18 in FIG. 6b); (b) fluorescence polarization assay with fluorescently labeled peptides and N-terminally GST-tagged human β-catenin (with corresponding Kds).
Peptide sequences derived from TCF4 and Axin were synthesized and fluorescently labeled (FIG. 4b) and the affinity of both binding domains to β-catenin was assessed. […] Therefore, the Axin derivative was considered to be the most promising candidate for the hydrocarbon stapling approach. It combines a relatively short and helical peptide sequence (15 amino acids) with moderate binding of β-catenin (Kd of ˜5 μM).

[2] = Circular dichroism spectra with calculated helicities; type: physicochemical
From the text: Based on the crystal structure of the Axin/β-catenin complex there are four residues (yellow, FIG. 5a) that are not involved in β-catenin binding[15] and should be suitable for modification without affecting binding. Taking into consideration that only i,i+4 (one helix turn) and i,i+7 5 (two helix turns) positioning of modified residues allows sufficient cross-linking[8] three hydrocarbon stapled sequences (STAX-1, 2 and 3, FIG. 5b) were designed. Circular dichroism spectra of the fluorescently labeled peptides were recorded allowing the calculation of helicities (FIG. 5c). […] Therefore, STAX-3 was chosen as starting point for further optimizations.

[3] = test system: SW480 cells; experiment: Cell penetration assay monitoring fluorescence of FITC-labeled peptides; type: cell-based; details: 10 μM peptide in 10% serum, 24 h, confocal microscope
Protocol: Besides its affinity to β-catenin it is cell permeability that impacts the capability of a peptide to interfere with the intracellular target. Therefore, the ability to penetrate cells was tested by monitoring fluorescence of the fluorescein(FITC)-labeled peptides.

[4] = test system: Wnt-dependent luciferase reporter; experiment: Dual-luciferase Wnt-dependent reporter gene assay; type: cell-based; details: firefly signal normalized to Renilla luciferase control
Protocol: FIG. 10 depicts (a) stapled peptide sequences with corresponding Kd to β-catenin (blue boxes mark mutations meant to disrupt binding to (β-catenin, charges at pH 7.5 are calculated values); (b) inhibition of a Wnt-dependent luciferase reporter (dual-luciferase assay: signal was normalized to Renilla luciferase control); (c) dose-dependent effect of STAX-147 and STAX-160 in the dual-luciferase assay.
The cell penetrating stapled peptides were tested for their effects on transcriptional activity using an established reporter gene assay. In this dual-luciferase assay firefly luciferase is transcriptionally regulated by constitutively activated Wnt signaling. The firefly signal is normalized to the Renilla luciferase control.

change of affinity to β-catenin (in words) ([1]; compared to wild type or parent peptide) | helicity ([2]; calculated from circular dichroism spectra of the fluorescently labeled peptide) | change of helicity (in words) ([2]; compared to the wild type sequence (ax-WT)) | increase in helicity compared to the wild type sequence (ax-WT) ([2]; versus ax-WT) | increase in binding affinity to β-catenin upon sequence modification ([1]; versus the preceding stapled peptide of the optimization series) | effect on Wnt-dependent luciferase reporter activity [4] | SMILES | increase in binding affinity to β-catenin compared to the wild type sequence (ax-WT) [1] | cell permeability [3]
increased | 51% | increased | 3.4 fold | – | – | CC[C@H](C)[C@@H]1NC(=O)[C@@](C)(NC(=O)[C@H](CCC(=O)O)NC(=O)[C@@H]2CCCN2C(=O)[C@H](CC(N)=O)NC(=O)[C@H](CCC(=O)O)NC(=O)CCNC(=S)Nc2ccc3c(c2)C(=O)OC32c3ccc(O)cc3Oc3cc(O)ccc32)CCCC=CCCC[C@@](C)(C(=O)N[C@@H](Cc2c[nH]cn2)C(=O)N[C@H](C(=O)N[C@@H](CCC(N)=O)C(=O)N[C@@H](CCCNC(=N)N)C(=O)N[C@H](C(=O)N[C@@H](CCSC)C(N)=O)C(C)C)C(C)C)NC(=O)[C@H](CC(=O)O)NC(=O)[C@H](CC(C)C)NC1=O [STAX-3] ({FITC-βAla}-ENPE[S5]ILD[S5]HVQRVM-NH2; staple 5-9) | 80 fold | non cell permeable
– | – | – | – | two fold increase | repression of luciferase activity | CC[C@H](C)[C@@H]1NC(=O)[C@@](C)(NC(=O)[C@H](CCC(N)=O)NC(=O)[C@@H]2CCCN2C(=O)[C@H](Cc2c[nH]c3ccccc23)NC(=O)[C@H](CCCNC(=N)N)NC(=O)COCCOCCNC(=S)Nc2ccc3c(c2)C(=O)OC32c3ccc(O)cc3Oc3cc(O)ccc32)CCCC=CCCC[C@@](C)(C(=O)N[C@@H](Cc2c[nH]cn2)C(=O)N[C@H](C(=O)N[C@@H](CCCNC(=N)N)C(=O)N[C@@H](CCCNC(=N)N)C(=O)N[C@H](C(=O)N[C@@H](Cc2c[nH]c3ccccc23)C(=O)N[C@@H](CCCNC(=N)N)C(N)=O)C(C)C)C(C)C)NC(=O)[C@H](CC(=O)O)NC(=O)[C@H](CC(C)C)NC1=O [STAX-090] | more than 600 fold | increased further; also recorded: good permeability
– | – | – | – | – | – | CC[C@H](C)[C@H](NC(=O)[C@H](CO)NC(=O)[C@H](CCC(=O)O)NC(=O)[C@@H]1CCCN1C(=O)[C@H](Cc1c[nH]c2ccccc12)NC(=O)[C@H](CCCNC(=N)N)NC(=O)CCNC(=S)Nc1ccc2c(c1)C(=O)OC21c2ccc(O)cc2Oc2cc(O)ccc21)C(=O)N[C@@H](CC(C)C)C(=O)N[C@@H](CC(=O)O)C(=O)N[C@@H](CCC(=O)O)C(=O)N[C@@H](Cc1c[nH]cn1)C(=O)N[C@@H](Cc1c[nH]c2ccccc12)C(=O)N[C@@H](CCC(=O)O)C(=O)N[C@@H](CCCNC(=N)N)C(=O)N[C@H](C(=O)N[C@@H](CCSC)C(=O)N[C@@H](CCCNC(=N)N)C(N)=O)C(C)C [phage-01] ({FITC-βAla}-RWPESILDEHWERVMR-NH2) | 39 fold | –
– | – | – | – | – | – | CC[C@H](C)[C@H](NC(=O)[C@H](CO)NC(=O)[C@H](CCC(=O)O)NC(=O)[C@@H]1CCCN1C(=O)[C@H](CC(N)=O)NC(=O)[C@H](CCC(=O)O)NC(=O)CCNC(=S)Nc1ccc2c(c1)C(=O)OC21c2ccc(O)cc2Oc2cc(O)ccc21)C(=O)N[C@@H](CC(C)C)C(=O)N[C@@H](CC(=O)O)C(=O)N[C@@H](CCC(=O)O)C(=O)N[C@@H](Cc1c[nH]cn1)C(=O)N[C@H](C(=O)N[C@@H](CCC(N)=O)C(=O)N[C@@H](CCCNC(=N)N)C(=O)N[C@H](C(=O)N[C@@H](Cc1c[nH]c2ccccc12)C(=O)N[C@@H](CCCNC(=N)N)C(N)=O)C(C)C)C(C)C [phage-17/18] ({FITC-βAla}-ENPESILDEHVQRVWR-NH2) | 8 fold | –
